Measurements: patent publication US7968535B2, “Use of azapaullones for preventing and treating pancreatic autoimmune disorders” (Develogen Atkiengesellschaft, priority 2005, dated 2011)

Experiments:
human GSK3 = test: IC50 Profiler Express kinase assay; type: biochemical; details: 10-point curves in duplicate
Procedure: Experiments were carried out by Upstate Ltd. according to the protocols described in KinaseProfiler™ Assay Protocols, IC50 Profiler Express™ (10-point curves in duplicate) Fall 2004 by Ustate Cell Signaling solutions.

INS-1E cells [1] = test: Viability by Alamar Blue reduction under glucose/palmitate; type: cell-based, rat; details: 24 hours
Procedure: (§1) The effects of the substance on cell viability, cell growth and specific apoptotic events such as caspases activity and DNA-fragmentation was monitored. INS-1E cell apoptosis was induced by treatment of cell cultures with toxic concentrations of glucose and palmitate for 24 hours. The substance of interest was added to the medium 1 hour prior to the addition of the toxic agents.
(§2) 10,000 Ins-1E cells were seeded per 96-well (black 96-well tissue culture plates, Falcon #353948) in 100 μl culture medium (RPMI 1640 containing 11 mM glucose, 5% FCS, 10 mM HEPES, 50 μM 2-mercaptoethanol, 1 mM MEM sodium pyruvate, 100 U/ml penicillin, 100 μg/ml streptomycin) and cultivated at 37° C., 5% CO2 in humidified atmosphere for 3 days. Media was changed to 100 μl starvation medium (culture medium with only 5 mM glucose, 1% FCS) and the cells were re-incubated for 1 day. Then media was exchanged to starvation medium containing test substances. […]
Viability was assessed by mitochondric reduction of the non toxic dye Alamar Blue (Bioscource, cat. No. DAL1025). The dye was added to the cells 4 hours before read-out according to the manufacturers guidelines. Basal fluorescence was measured immediately to be subtracted from the fluorescence after 4 hours. […]

INS-1E cells [2] = test: Caspase activity assay in glucose/palmitate stressed cells; type: cell-based, rat
Procedure: as §1
Caspase activation is a characteristic of early apoptotic cells. The experiment was carried out as described above with the exception that the caspases activity assay was applied instead of the DNA-fragmentation assay (see Example 3 for details).
(§3) 10,000 Ins-1E cells were seeded per 96-well (black 96-well tissue culture plates, Falcon #353948) in 100 μl culture medium (RPMI 1640 containing 11 mM glucose, 5% FCS, 10 mM HEPES, 50 μM 2-mercaptoethanol, 1 mM MEM sodium pyruvate, 100 U/ml penicillin, 100 μg/ml streptomycin) and cultivated at 37° C., 5% CO2 in humidified atmosphere for 3 days. Media was changed to 100 μl starvation medium (culture medium with only 5 mM glucose, 1% FCS) and the cells were re-incubated for 1 day. Then media was exchanged to starvation medium containing test substances.
(§4) Apoptosis of Ins-1E cells was induced by addition of a combination of BSA coupled palmitate and glucose (pal/gluc) or a combination of cytokines (cyt) 1 hour after starting the treatment with test substances: pal/gluc: 0.3 mM palmitate:BSA (palmitic acid sodium salt:fatty acid free BSA 6:1) and 25 mM glucose. 10×cyt: 0.04 ng/ml IL-1β and 1 ng/ml IFNγ. The cells were further incubated with test substances and apoptotic inducer for 24 hours.
Caspase activity is a characteristic of early apoptotic cells. Their activity was quantified by an enzymatic assay (homogeneous caspases assay, Roche, cat. No. 03 005 372 001). Caspase activity was measured 3 hours after addition of caspases substrate according to the manufacturers guidelines.

INS-1E cells [3] = test: Glucolipotoxicity induced apoptosis of INS-1E cells (overall assessment); type: cell-based, rat; details: palmitate and glucose, 24 hours
Procedure: as §1
The effects of the test compounds on beta cell function were assessed using biological assays monitoring cellular metabolic activity as well as specific apoptotic events in Ins-1E cells.
as §3, §4

INS-1E cells [4] = test: Cell number by CyQuant assay; type: cell-based, rat; details: 24 hours
Procedure: as §1, §2
Cell number was measured by staining of cellular DNA with CyQuant dye (CyQuant Cell Proliferation Assay Kit, Molecular Probes, cat. No. C-7026) which becomes fluorescent when bound to DNA. […]

INS-1E cells [5] = test: DNA-fragmentation ELISA in glucose/palmitate stressed cells; type: cell-based, rat; details: glucose/palmitate 24 hours; for reduction of cytosolic DNA-fragments: 20 μM
Procedure: as §1
DNA-fragmentation is a comparatively late apoptotic event comprising storage of nucleosomal DNA-fragments as mono- and oligo nucleosomes in the cytoplasm. The incubation of INS1-E cells with high concentrations of glucose and palmitate for 24 hours leads to DNA breakdown and the accumulation of nucleosomal DNA fragments in the cytoplasm. The detectable amount of cytosolic nucleosomal DNA fragments was reduced by about 17%, when cells were treated with the apoptosis inducing agents in combination with 10 μM 4-AKP.
as §3, §4
DNA-fragmentation is a late apoptotic event comprising storage of nucleosomal DNA-fragments as mono- and oligo nucleosomes in the cytoplasm. Their concentration was determined by ELISA (Cell death detection ELISA, Roche, cat. No. 1774425) according to the manufacturers guidelines.

INS-1E cells [6] = test: Ins-1E cell proliferation assay (BrdU incorporation); type: cell-based, rat
Procedure: The proliferation rate of Ins-1E cells was determined by monitoring DNA synthesis using a 5-bromo-2′-deoxyuridine (BrdU) incorporation assay. BrdU is a halogenated nucleotide analogue of thymidine that is incorporated into DNA during the S-phase of the cell cycle. Pulse-labeling of DNA with BrdU and subsequent immunohistochemical detection of labeled nuclei was used to study the rate of cell proliferation. The treatment of INS-1E cells with 4-Azakenpaullone for 24 hours increases BrdU incorporation of Ins-1E cells in a concentration dependent manner, reaching a maximum of about 1.4 fold between 5 μM and 10 μM 4-AKP.
The proliferation of Ins-1E insulinoma cells was determined by monitoring DNA synthesis as an indirect parameter of cell proliferation. The incorporation of the thymidine analogue 5-bromo-2′-deoxyuridine (BrdU) during replication into cellular DNA was used to label the DNA of mitotically active cells. After its incorporation into DNA, BrdU was detected by immunoassay.
as §3, with “substances and the cells were further incubated for 24 h. For the last 4 hours BrdU was added to reach a concentration of 10 μM. Cell proliferation ELISA (Cell Proliferation ELISA, BrdU, chemiluminescence, Roche, cat. No. 1669915) was performed according to the manufacturers guidelines.” for “substances.”

[7] = system: panel of 28 protein kinases; test: KinaseProfiler biochemical kinase activity assays; details: tested in parallel with 1-Azakenpaullone
Procedure: (§5) Experiments were carried out by Upstate Ltd. according to the protocols described in KinaseProfiler™ Assay Protocols Fall 2004 by Ustate Cell Signaling solutions.
(§6) Compounds 10c and e are structurally very similar to 1-Azakenpaullone and differ only by one substituent at position 9 of the D ring from their template 1-Azakenpaullone. […] These kinases were selected among about 250 different kinases based on their structural or functional similarity to GSK3, e.g. all available members of the CDK family were included in the survey because CDKs are most similar to GSK3 and several kinase inhibitors are known that inhibit members of both families. The direct comparison of different compounds in such an experiment provides information on the relative selectivity of the respective compounds.

[8] = system: cyclin-dependent kinases (CDKs); test: KinaseProfiler biochemical kinase activity assays
Procedure: as §5, §6

## O=C1Cc2c([nH]c3ccc(Br)cc23)-c2ncccc2N1 [1-Azakenpaullone, reference compound]
Human GSK3
  inhibition of human GSK3: potent inhibitor

## O=C1Cc2c([nH]c3ccc(Br)cc23)-c2cccnc2N1 [4-Azakenpaullone, reference compound]
INS-1E cells [1]
  viability of Ins-1E cells subjected to apoptosis inducing concentrations of glucose and palmitate: slightly improves the viability
INS-1E cells [2]; 10 μM
  reduction of caspase activity: 18%
INS-1E cells [3]
  effect on glucolipotoxicity induced apoptosis: slightly antagonizes apoptotic processes
INS-1E cells [4]
  increase in cell-number relative to untreated controls: 1.2 fold
INS-1E cells [5]; 10 μM
  reduction of cytosolic nucleosomal DNA fragments: about 17%
INS-1E cells [6]; 24 hours, maximum between 5 μM and 10 μM
  BrdU incorporation relative to untreated controls (maximum): about 1.4 fold

## COc1ccc2[nH]c3c(c2c1)CC(=O)Nc1cccnc1-3 [Compound 10a, 9-Methoxy-7,12-dihydro-pyrido[3′,2′:2,3]azepino[4,5-b]indole-6(5H)-one]
INS-1E cells [2]; 20 μM
  reduction of caspase activity: 22%
INS-1E cells [3]
  effect on glucolipotoxicity induced apoptosis: moderately prevents glucolipotoxicity induced apoptosis
INS-1E cells [5]
  reduction of cytosolic DNA-fragments: 44%
INS-1E cells [6]
  proliferation of INS-1E cells (in words): small effect
INS-1E cells [6]; at about 10 μM
  BrdU incorporation relative to untreated controls (maximum): about 1.2 fold

## O=C1Cc2c([nH]c3ccc(O)cc23)-c2ncccc2N1 [Compound 10d, 9-Hydroxy-7,12-dihydropyrido[3′,2′:2,3]azepino[4,5-b]indole-6(5H)-one]
INS-1E cells [2]; 20 μM
  reduction of caspase activity: 27%
INS-1E cells [3]
  effect on glucolipotoxicity induced apoptosis: slightly effects glucolipotoxicity induced apoptosis
INS-1E cells [5]
  reduction of cytosolic DNA-fragments: 23%

## O=C1Cc2c([nH]c3ccc(Cl)cc23)-c2ncccc2N1 [Compound 10e, 9-Chloro-7,12-dihydropyrido[3′,2′:2,3]azepino[4,5-b]indole-6(5H)-one]
INS-1E cells [2]; 20 μM
  reduction of caspase activity: 16%
INS-1E cells [3]
  effect on glucolipotoxicity induced apoptosis: slightly prevents glucolipotoxicity induced apoptosis
[7]
  kinase selectivity / activity profile: selective kinase inhibitors
[8]
  inhibition of cyclin-dependent kinases (CDKs): significantly inhibits
INS-1E cells [5]
  reduction of cytosolic DNA-fragments: 23%
INS-1E cells [6]; maximum between 1 μM and 10 μM
  BrdU incorporation relative to untreated controls (maximum): about 1.7 fold

## O=C1Cc2c([nH]c3ccc(C(F)(F)F)cc23)-c2ncccc2N1 [Compound 10l, 9-Trifluoromethyl-7,12-dihydropyrido[3′,2′:2,3]azepino[4,5-b]indol-6(5H)-one]
INS-1E cells [3]
  effect on glucolipotoxicity induced apoptosis: significantly effects glucolipotoxicity induced apoptosis
INS-1E cells [6]; maximum between 1 μM and 5 μM
  BrdU incorporation relative to untreated controls (maximum): about 1.4 fold
